Test systems include OVCAR-4 ovarian; SF-268 CNS; SNB-75 CNS; NCI-H23 lung; IGROV1 ovarian; LOX IMVI melanoma; SK-MEL-28 melanoma; MALME-3M melanoma; NCI-H522 lung.
Holding throughout (assay): NCI-60 cell line screen, 48 h

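Dose response: 5 concentrations. Exposure: 48 h. Format: 96-well plates. Endpoint: linear interpolation; highest concentration if not reached. At the GI50, growth is halved. TGI marks complete inhibition of growth.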

Among the data in PubChem BioAssay (NCI) are GI50 and TGI values, retold here.

Take `CCN1c2ccccc2C(Cl)(c2ccc(N(C)C)cc2)c2ccccc21`: the GI50 with OVCAR-4 ovarian is 11.9 µM; in the assay on SF-268 CNS, 5.61 µM; in the assay with SNB-75 CNS, 5.16 µM; in the assay on NCI-H23 lung, 3.04 µM; with IGROV1 ovarian it was 2.61 µM; with LOX IMVI melanoma, 3.67 µM. Besides, the GI50 in the assay with SK-MEL-28 melanoma was 7.96 µM; in the assay with MALME-3M melanoma, 3.33 µM. For the same compound, the TGI in the assay on OVCAR-4 ovarian is 25.3 µM; in the assay with SF-268 CNS it was 19.3 µM; in the assay on SNB-75 CNS it was 18.2 µM; with NCI-H23 lung, 14.4 µM; in the assay on IGROV1 ovarian it was 7.98 µM; in the assay on LOX IMVI melanoma, 13.6 µM. Besides, the TGI is 22.4 µM in the assay with SK-MEL-28 melanoma and 12.4 µM in the assay with MALME-3M melanoma.

As for `Nc1c(C(=O)Nc2ccccc2)[n+]([O-])c2ccccc2[n+]1[O-]`, the TGI was 33.5 µM in the assay on OVCAR-4 ovarian; greater than 100 µM in the assay with SF-268 CNS; 34 µM in the assay with SNB-75 CNS; 28.8 µM in the assay with NCI-H23 lung; 44.8 µM in the assay on IGROV1 ovarian; 28.6 µM with LOX IMVI melanoma. Besides, the TGI with NCI-H522 lung was found to be 4.4 µM; in the assay with SK-MEL-28 melanoma, 34.9 µM.

Take `O=Nc1ccc2ccccc2c1O`: the GI50 is 1.89 µM in the assay on OVCAR-4 ovarian; 3.97 µM in the assay on SF-268 CNS; 2.61 µM in the assay with SNB-75 CNS; 3.18 µM with NCI-H23 lung; 2.07 µM in the assay on IGROV1 ovarian; 1.68 µM in the assay on LOX IMVI melanoma. Besides, the GI50 was 1.78 µM in the assay on NCI-H522 lung, 9.08 µM in the assay on SK-MEL-28 melanoma and 3.39 µM in the assay on MALME-3M melanoma. In addition, the TGI in the assay with OVCAR-4 ovarian amounted to 5.32 µM; in the assay on SF-268 CNS it was 13.3 µM; with SNB-75 CNS it was 15.7 µM; with NCI-H23 lung, 16.1 µM; with IGROV1 ovarian it was 5.91 µM; in the assay with LOX IMVI melanoma it was 5.71 µM. Besides, the values for the TGI in the assay on NCI-H522 lung, in the assay on SK-MEL-28 melanoma and in the assay with MALME-3M melanoma were 4.17 µM, 22.2 µM and 8.51 µM, respectively.

In the case of `COc1ccccc1C#Cc1ccccc1C#CCCCCCC#Cc1ccccc1C#Cc1ccccc1OC`, the GI50 in the assay with OVCAR-4 ovarian is 13.7 µM; in the assay on SF-268 CNS, 96.5 µM; in the assay with SNB-75 CNS, 1.81 µM; in the assay with NCI-H23 lung, 43.9 µM; with IGROV1 ovarian it was 77.7 µM; with LOX IMVI melanoma, 98.1 µM. Moreover, the results for the GI50 in the assay on NCI-H522 lung, in the assay with SK-MEL-28 melanoma and in the assay on MALME-3M melanoma were 40.3 µM, 68.6 µM and greater than 100 µM, respectively. For the same compound, the TGI was 84.4 µM in the assay with OVCAR-4 ovarian; greater than 100 µM in the assay with SF-268 CNS; 14.3 µM with SNB-75 CNS; greater than 100 µM with NCI-H23 lung; greater than 100 µM in the assay with IGROV1 ovarian; greater than 100 µM in the assay with LOX IMVI melanoma. In addition, the TGI in the assay on NCI-H522 lung, in the assay with SK-MEL-28 melanoma and in the assay with MALME-3M melanoma was greater than 100 µM in each case.

As to `CC(=O)OC1(C)C(=O)OC1(C)C(C)=O` (stereo not drawn), the TGI in the assay with OVCAR-4 ovarian, in the assay with SF-268 CNS, with SNB-75 CNS, in the assay with NCI-H23 lung, with IGROV1 ovarian and in the assay with LOX IMVI melanoma was greater than 100 µM each time. In addition, the TGI in the assay with NCI-H522 lung, in the assay on SK-MEL-28 melanoma and with MALME-3M melanoma was greater than 100 µM in each case.

Regarding `CC(C)(C)C(=O)ON1N=NC2C3CC(OCc4ccccc4)(OCc4ccccc4)C(O3)C21` (stereo not drawn), the TGI was 82.4 µM with OVCAR-4 ovarian; 88.2 µM in the assay on SF-268 CNS; 69.5 µM in the assay with SNB-75 CNS; 43.4 µM in the assay on NCI-H23 lung; greater than 100 µM in the assay with IGROV1 ovarian; 32.8 µM in the assay with LOX IMVI melanoma. In addition, the TGI stood at 35.3 µM in the assay on SK-MEL-28 melanoma and 31.2 µM in the assay on MALME-3M melanoma.

For the compound `Cc1ccc(SC2=CC(=O)c3nc4ccccc4c4ccnc2c34)cc1`, the GI50 is 17.4 µM in the assay on OVCAR-4 ovarian; 29.7 µM in the assay on SF-268 CNS; 39.8 µM in the assay with SNB-75 CNS; 24.7 µM in the assay with NCI-H23 lung; greater than 37.9 µM with IGROV1 ovarian; 28.5 µM in the assay on LOX IMVI melanoma. The GI50 with NCI-H522 lung is 16.3 µM; in the assay on SK-MEL-28 melanoma, greater than 100 µM; in the assay with MALME-3M melanoma, 46.7 µM. Also, the TGI in the assay with OVCAR-4 ovarian was 32.6 µM; in the assay on SF-268 CNS, greater than 70.7 µM; in the assay with SNB-75 CNS, greater than 100 µM; in the assay on NCI-H23 lung, greater than 73.9 µM; in the assay on IGROV1 ovarian, greater than 58.5 µM; in the assay with LOX IMVI melanoma, greater than 100 µM. In addition, the TGI in the assay on NCI-H522 lung is 38.4 µM; with SK-MEL-28 melanoma, greater than 100 µM; in the assay on MALME-3M melanoma, greater than 69.5 µM.

Take `C/C(=N\N=C(/[Se])N1CC2CCC(CC2)C1)c1ccccn1`: the TGI with OVCAR-4 ovarian was 2.56 µM; in the assay on SF-268 CNS, 5.43 µM; with SNB-75 CNS, 1.11 µM; in the assay on NCI-H23 lung, 1.57 µM; in the assay with IGROV1 ovarian, 2.48 µM; in the assay on LOX IMVI melanoma it was 0.64 µM. For the same compound, the TGI in the assay with NCI-H522 lung amounted to 0.615 µM; in the assay with SK-MEL-28 melanoma it was 1.03 µM; in the assay with MALME-3M melanoma, 0.567 µM.

As for `O=C(OCC1CO1)c1cccs1` (stereo not drawn), the TGI in the assay on OVCAR-4 ovarian, in the assay on SF-268 CNS, in the assay with SNB-75 CNS, in the assay with NCI-H23 lung, in the assay on IGROV1 ovarian and in the assay on LOX IMVI melanoma was greater than 100 µM in each case. Besides, the TGI in the assay on NCI-H522 lung is 36.9 µM; in the assay on SK-MEL-28 melanoma it was greater than 100 µM; with MALME-3M melanoma, greater than 100 µM.

For `COc1cccc(Cc2c3cc(OC)ccc3cc[n+]2C)c1`, the TGI in the assay with OVCAR-4 ovarian was greater than 100 µM; in the assay on SF-268 CNS, greater than 100 µM; with SNB-75 CNS, greater than 100 µM; with NCI-H23 lung it was greater than 100 µM; in the assay with NCI-H522 lung it was 92.3 µM; with SK-MEL-28 melanoma it was greater than 100 µM. In the assay with MALME-3M melanoma, this compound gave a TGI greater than 100 µM.

Consider `CCOC(=O)C1SC(=Nc2ccc(Cl)c(Cl)c2)N=C1C` (stereo not drawn), for which the TGI was 62 µM with OVCAR-4 ovarian; greater than 100 µM in the assay with SF-268 CNS; 58.9 µM in the assay on SNB-75 CNS; greater than 100 µM in the assay with NCI-H23 lung; greater than 100 µM with IGROV1 ovarian; 63.9 µM in the assay on LOX IMVI melanoma. Besides, the TGI with NCI-H522 lung, in the assay on SK-MEL-28 melanoma and in the assay on MALME-3M melanoma was greater than 100 µM in each case.

For the compound `CCOC(=O)C(=Cc1ccc(C(=O)OC)cc1)C(=O)OCC`, the TGI with OVCAR-4 ovarian was 14 µM; with SF-268 CNS, 6.51 µM; in the assay with SNB-75 CNS, 4.65 µM; in the assay with NCI-H23 lung, 3.36 µM; with IGROV1 ovarian it was 7.73 µM; with LOX IMVI melanoma it was 3.55 µM. Also, the figures for the TGI with NCI-H522 lung, with SK-MEL-28 melanoma and in the assay on MALME-3M melanoma were 2.8 µM, 3.34 µM and 3.52 µM, respectively.

Regarding `COc1ccccc1NC(=O)C1=C(C)NC(C)=C(C(=O)Nc2ccccc2OC)C1c1ccc(C)cc1`, the TGI with OVCAR-4 ovarian, in the assay on SF-268 CNS, in the assay with SNB-75 CNS, with NCI-H23 lung, in the assay on IGROV1 ovarian and in the assay with LOX IMVI melanoma was greater than 100 µM in each case. Moreover, the TGI with NCI-H522 lung, with SK-MEL-28 melanoma and in the assay on MALME-3M melanoma was greater than 100 µM in each case.

Consider `C#Cc1c(C(N)=O)ncn1C1OC(COP(=O)(OCc2ccc([N+](=O)[O-])o2)N(C)CCCCCl)C(O)C1O` (stereo not drawn), for which the GI50 is greater than 100 µM with OVCAR-4 ovarian; 45.1 µM in the assay on SF-268 CNS; 28.1 µM in the assay with SNB-75 CNS; 5.99 µM with NCI-H23 lung; 4.59 µM in the assay with IGROV1 ovarian; 22.4 µM with LOX IMVI melanoma. Besides, the GI50 in the assay with NCI-H522 lung was 3.78 µM; in the assay on SK-MEL-28 melanoma, 27.3 µM. The TGI in the assay on OVCAR-4 ovarian is greater than 100 µM; with SF-268 CNS it was greater than 100 µM; in the assay with SNB-75 CNS it was greater than 100 µM; in the assay on NCI-H23 lung, 73.6 µM; in the assay with IGROV1 ovarian, greater than 100 µM; in the assay on LOX IMVI melanoma it was greater than 100 µM. Also, the TGI with NCI-H522 lung was 88.1 µM; with SK-MEL-28 melanoma, greater than 100 µM.

As to `COc1ccc(-n2c3c(c4c(CN5CCOCC5)c(O)ccc42)CCc2ccccc2C3=O)cc1`, the GI50 was greater than 100 µM in the assay on SF-268 CNS; 24.9 µM in the assay on NCI-H23 lung; 37.6 µM in the assay on IGROV1 ovarian; 67.3 µM in the assay with LOX IMVI melanoma; 7.28 µM in the assay on NCI-H522 lung; greater than 100 µM with MALME-3M melanoma. Moreover, the TGI with SF-268 CNS is greater than 100 µM; in the assay with NCI-H23 lung, greater than 100 µM; in the assay with IGROV1 ovarian it was greater than 100 µM; in the assay on LOX IMVI melanoma, greater than 100 µM; in the assay on NCI-H522 lung, 63.2 µM; in the assay with MALME-3M melanoma it was greater than 100 µM.

Regarding `O=C(CC(=O)N1N=C(N2c3ccccc3Sc3ccccc32)CC1c1ccccc1)Nc1ccc(Cl)cc1` (stereo not drawn), the TGI in the assay on OVCAR-4 ovarian, in the assay with SF-268 CNS, in the assay with SNB-75 CNS, with NCI-H23 lung, in the assay on IGROV1 ovarian and in the assay with LOX IMVI melanoma was greater than 100 µM each time. In addition, the TGI with SK-MEL-28 melanoma and in the assay with MALME-3M melanoma was greater than 100 µM throughout.

As for `CC1=CCC23C(C1)OC(Br)(C=CC2(C)O)C3(C)C` (stereo not drawn), the TGI in the assay with OVCAR-4 ovarian, in the assay on SF-268 CNS, in the assay on SNB-75 CNS, in the assay with NCI-H23 lung, in the assay on IGROV1 ovarian and in the assay on LOX IMVI melanoma was greater than 100 µM throughout. The TGI in the assay with SK-MEL-28 melanoma and with MALME-3M melanoma was greater than 100 µM each time.

Turning to `Cc1ccc(-c2cc(C3=CC(=O)C=CC3=O)n(-c3ccc(S(N)(=O)=O)cc3)n2)cc1`, the GI50 was 55.3 µM in the assay on SF-268 CNS; 32.9 µM in the assay with NCI-H23 lung; greater than 100 µM in the assay on IGROV1 ovarian; 31.2 µM with LOX IMVI melanoma; 59.9 µM with NCI-H522 lung; greater than 100 µM in the assay with SK-MEL-28 melanoma. The TGI in the assay with SF-268 CNS, in the assay on NCI-H23 lung, in the assay on IGROV1 ovarian, in the assay on LOX IMVI melanoma, in the assay with NCI-H522 lung and in the assay on SK-MEL-28 melanoma was greater than 100 µM in each case.
